Consider four molecules from publication PMC10508484, “Development and application of a PBPK modeling strategy to support antimalarial drug development” (CPT: Pharmacometrics & Systems Pharmacology, 2023).

Molecules are shown by their SMILES. Like-named read-outs stand apart in the source and are kept apart here.

Series [1] is described as follows: In vitro flags for victim and perpetrator properties conferring DDI liability. The class given is in vitro ADME, human. The following applies: in vitro flag, mainly based on in vitro determinations.
The conditions of series [2]: cited from earlier work.
For series [3] the following is noted: cited from earlier work. This is another data set of the same source.
The test system of another series is CYP2C9. The following applies: ref mefloquine Karbwang et al., 1988 58; tafenoquine Charman et al., 2020 1; cited from earlier work.
The conditions of series [4]: cited from earlier work. The source holds these as a separate data set.
The conditions of series [5]: ref Charman et al., 2020 1; cited from earlier work.
Series [6] has as its target T1, CYP2D6 (Homo sapiens, UniProt P10635). The series can be described thus: CYP2D6 inhibition.
The next series has as its system Caco-2 cells. The following applies: Caco-2; cited from earlier work.
A short description of series [7]: In vivo clearance (CL IV, CL PO, CL renal, fe). The following applies: chloroquine model.
For another series, the target named is T2, CYP2C8 (Homo sapiens, UniProt P10632).
T2 sequence (P10632 1-490): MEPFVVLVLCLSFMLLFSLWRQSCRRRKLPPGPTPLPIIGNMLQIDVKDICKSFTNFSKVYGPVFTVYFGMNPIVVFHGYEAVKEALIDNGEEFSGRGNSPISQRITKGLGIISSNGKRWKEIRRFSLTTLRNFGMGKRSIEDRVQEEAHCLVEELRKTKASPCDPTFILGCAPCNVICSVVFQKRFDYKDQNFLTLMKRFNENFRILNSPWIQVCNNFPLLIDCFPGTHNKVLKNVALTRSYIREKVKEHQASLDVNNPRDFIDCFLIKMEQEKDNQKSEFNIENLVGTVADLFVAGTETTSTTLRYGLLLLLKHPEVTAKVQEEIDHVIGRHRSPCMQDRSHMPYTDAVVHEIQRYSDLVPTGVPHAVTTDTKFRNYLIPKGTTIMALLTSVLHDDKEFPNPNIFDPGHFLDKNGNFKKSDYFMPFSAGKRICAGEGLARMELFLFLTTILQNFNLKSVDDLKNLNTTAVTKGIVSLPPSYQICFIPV
The series can be described thus: Metabolism by CYP2C8 (CLint, fm). The conditions noted are these: for fmCYP2C8: fraction metabolised used in the PBPK model. An excerpt: (§1) In nearly all cases the fraction of systemic elimination metabolised by a given enzyme (fm) determined in vitro was unavailable in the literature.

For series [8] the following is noted: measured (0.4 mg/mL protein where stated); ref Charman et al., 2020 1; cited from earlier work.
The conditions of series [9]: PBPK input; ref atovaquone oral bioavailability Lavelle et al., 1994 17; chloroquine Walker et al., 1987 29; doxycycline Fabre et al., 1966 45, Saivin et al., 1988 46; proguanil Ke et al., 2014 64; pyronaridine mass balance study Morris et al., 2015 72; cited from earlier work.
The nature of series [10]: Blood to plasma ratio (B:P). The following applies: PBPK input; unpublished (in-house) data.
A further series is described as follows: in vitro. The following applies: human, plasma.
The target in series [11] is T1, CYP2D6. Put plainly: Metabolism by CYP2D6 (CLint, fm).
Source text: as §1

The next series has as its target CYP3A4 (Homo sapiens, UniProt P08684).
Source text: as §1

The subject of the next series is CYP1A2. The series can be described thus: Metabolism by CYP1A2 (CLint, fm). The format is in vitro ADME, human.
Source text: as §1

A further series relates to CYP2B6. Put plainly: Metabolism by CYP2B6 (CLint, Vmax, Km, fm). The format is in vitro ADME, human.
Source text: as §1

Setting [12] is: clinically observed oral (in vivo) clearance, pyronaridine: blood, ref amodiaquine Winstanley et al., 1987 9, DEAQ Akande et al., 2015 8, Scarsi et al., 2014 35, Tarning et al., 2012 36, Orrell et al., 2008 37, DHA Na-Bangchang et al., 2004 42, lumefantrine Lefevre et al., 2002 52, Hoglund et al., 2015 53, mefloquine Charles et al., 2007 56, proguanil Jeppesen et al., 1997 34, pyronaridine Jittama.

[13] abbreviates: PBPK input, ref amodiaquine, DEAQ Winstanley et al., 1987 9, atovaquone Rolan et al., 1997 14, azithromycin Lalak et al., 1993 23, carboxyprimaquine Mihaly et al., 1985 26, chloroquine Walker et al., 1987 29, DHA EMA Website, 44, doxycycline Raghuram et al., 1982 48, Nguyen et al., 1989 49, mefloquine Schwartz et al., 1982 57, primaquine White, 1985 62, proguanil Jeppesen et al., 1997 34, pyrimeth.

Setting [14] is: fraction metabolised used in the PBPK model.
[15] abbreviates: retrograde calculations from CL PO, blood.

T1 sequence (P10635 whole entry): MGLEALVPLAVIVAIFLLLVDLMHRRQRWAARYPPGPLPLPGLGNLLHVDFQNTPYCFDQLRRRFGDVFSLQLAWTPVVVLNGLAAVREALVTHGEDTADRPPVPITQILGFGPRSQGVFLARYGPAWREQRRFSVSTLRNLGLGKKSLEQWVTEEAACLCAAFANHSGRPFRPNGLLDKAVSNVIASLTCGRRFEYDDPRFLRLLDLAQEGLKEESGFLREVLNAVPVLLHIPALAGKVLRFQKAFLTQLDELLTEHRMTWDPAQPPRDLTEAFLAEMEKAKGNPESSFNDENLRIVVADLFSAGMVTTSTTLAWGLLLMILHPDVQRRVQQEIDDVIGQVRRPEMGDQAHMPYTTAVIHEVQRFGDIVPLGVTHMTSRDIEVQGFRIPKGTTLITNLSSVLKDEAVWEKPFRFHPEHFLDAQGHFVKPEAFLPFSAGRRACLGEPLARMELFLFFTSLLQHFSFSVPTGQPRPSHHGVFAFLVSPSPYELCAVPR
CYP3A4, sequence (P08684 whole entry): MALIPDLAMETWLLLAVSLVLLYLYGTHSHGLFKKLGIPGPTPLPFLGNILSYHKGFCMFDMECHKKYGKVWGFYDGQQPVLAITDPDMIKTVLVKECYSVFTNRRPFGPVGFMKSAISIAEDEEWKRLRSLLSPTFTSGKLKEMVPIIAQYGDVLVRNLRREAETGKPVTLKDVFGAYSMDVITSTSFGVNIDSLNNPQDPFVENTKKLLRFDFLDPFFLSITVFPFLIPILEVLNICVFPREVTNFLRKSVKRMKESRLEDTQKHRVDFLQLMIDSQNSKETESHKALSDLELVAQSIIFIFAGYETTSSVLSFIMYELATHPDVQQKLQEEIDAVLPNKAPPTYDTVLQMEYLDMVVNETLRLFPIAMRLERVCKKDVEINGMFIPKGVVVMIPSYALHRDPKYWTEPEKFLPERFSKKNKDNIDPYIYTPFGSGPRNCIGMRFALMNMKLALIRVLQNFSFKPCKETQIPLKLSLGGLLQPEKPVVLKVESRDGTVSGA

As to `COc1cc(C)c2c(Oc3cccc(C(F)(F)F)c3)c(OC)cc(NC(C)CCCN)c2n1` (centres unmarked) [Tafenoquine, tafenoquine], the “Risk as a perpetrator” value in series [1] is “CYP3A4 and CYP2C9 inhibitor”. Also, the fu in [2] (PBPK input, ref atovaquone Mepron Prescribing Information, 2008, Nixon et al., 2013 13, Rolan et al., 1997 14, azithromycin Foulds et al., 1990 20, chloroquine Ofori-Adjei et al., 1986 27, Walker et al., 1983 28, DHA Batty et al., 2004 41 (healthy volunteers), lumefantrine CDER submission 22-269, proguanil Wattanagoon et al., 1987 63, tafenoquine Dow et al., 2020 84) is reported as 0.005. Also, in series [2] (depending on the methodology used, ref literature), the “fu, range reported in the literature” value was 0.0007 to 0.11. Besides, the Main binding protein entry in series [2] (ref amodiaquine, DEAQ Hietala, 2009 2, atovaquone Nixon et al., 2013 13, DHA Batty et al., 2004 41, mefloquine, tafenoquine (also AGP) Zsila et al., 2008 54) is on record as “HSA”. Also, the “AUC Obs” value in series [3] (300 mg SD, 0-72 h, ref Green et al., 2014 45) is 10611 ng·h/mL; in [3] (400 mg QD (3 days), 0-72 h, ref Green et al., 2014 45), 41896 ng·h/mL; in [3] (600 mg SD, 0-72 h, ref Green et al., 2014 45), 22986 ng·h/mL. For the same molecule, the “Cmax Obs” value in series [3] (300 mg SD, ref Green et al., 2014 45) is reported as 186 ng/mL; in [3] (400 mg QD (3 days), ref Green et al., 2014 45), 724 ng/mL; in [3] (600 mg SD, ref Green et al., 2014 45), 422 ng/mL. For the same molecule, in the series with CYP2C9, the Ki (in general, the equilibrium dissociation constant of an inhibitor or competing ligand from its target) is 10 µM. Besides, the “CL PO” value in [4] (setting [12]) was 3.08 L/h. Further, the “B:P” value in series [5] is reported as 1.3.
For the molecule `CCN(CC)Cc1cc(Nc2ccnc3cc(Cl)ccc23)ccc1O` [Amodiaquine, amodiaquine], the “Risk as a victim” value in [1] is “Substrate of CYP2C8”. Further, in [3] (in vivo, 540 mg), the “AUC Obs” value is 331 ng·h/mL. In addition, the “CL PO” value in [4] (in vivo, po) is listed as 2500 L/h. In series [4] (in vivo), the CL renal is on record as 3.5 L/h. In addition, the Ki at CYP2D6 [6] is 0.45 µM. For the same molecule, the “Caco-2 (Papp A-B)” value with Caco-2 cells is 9.8 10-6 cm/s.
Turning to `CCN(CC)CCCC(C)Nc1ccnc2cc(Cl)ccc12` (centres unmarked) [Chloroquine, chloroquine], in [1], the “Risk as a perpetrator” value is “CYP2D6 inhibitor”. In addition, the “Risk as a victim” value in series [1] is “Substrate of CYP2C8 and CYP3A4; renally cleared”. The “renal clearance share of elimination” value in series [7] was 57%. The fmCYP2C8 at CYP2C8 was 11%. The “CLint CYP2C8” value on CYP2C8 (human) came out at 0.27 µL/min/pmol. Moreover, in series [8], the fumic is on record as 0.5. The fa in series [9] is 1. Also, the “Cmax Obs” value is 837 ng/mL in [3] (300 mg infusion (over 23.5 mins) SD, ref Gustafsson et al., 1983 16); 73.0 ng/mL in series [3] (300 mg soln. SD, ref Gustafsson et al., 1983 16); 76.0 ng/mL in [3] (300 mg tablet SD, ref Gustafsson et al., 1983 16). Besides, in [4] (setting [13]), the CL renal is listed as 24.78 L/h. Also, the “CL IV” value in series [4] (clinically observed, ref atovaquone Lavelle et al., 1994 17, chloroquine Walker et al., 1987 29, Gustafsson et al., 1983 30, doxycycline Raghuram et al., 1982 48, Nguyen et al., 1989 49, primaquine Mihaly et al., 1985 26, quinine White et al., 1983 77, Paintaud et al., 1993 78) is 39.84 L/h. The “B:P” value in series [5] is 3.5.
Turning to `COc1ccc2nc3cc(Cl)ccc3c(Nc3cc(CN4CCCC4)c(O)c(CN4CCCC4)c3)c2n1` [Pyronaridine, pyronaridine], in [10], the “B:P” value came out at 1.5. Besides, in [1], the “Risk as a perpetrator” value was “CYP2D6 and P‐gp inhibitor”; the “Risk as a victim” value is “Substrate of CYP1A2, CYP2B6, CYP2C8, CYP2D6 and CYP3A4”. Also, the fraction unbound (usually the share of the substance not bound to proteins or other matrix) in the series “in vitro” is 0.058. Besides, the “CLint CYP2C8” value on CYP2C8 (derived from in vivo clearance by retrograde calculations) was 0.19 µL/min/pmol. The fmCYP2C8 on CYP2C8 turned out to be 4.8%. The fa in series [9] is 0.74. Moreover, the CL renal in series [4] (setting [13]) is 0.16 L/h. Further, the “CL PO” value in [4] (setting [12]) is given as 22.1 L/h. In addition, in series [4] (ref atovaquone Rolan et al., 1997 14, mefloquine Schwartz et al., 1982 57, primaquine White, 1985 62, proguanil (extensive metabolisers) Jeppesen et al., 1997 34, pyronaridine Wattanavijitkul, 2010 74, sulfadoxine assumed with Edstein, 1987 83), the “fe (fraction excreted unchanged in urine)” value was 1%. For the same molecule, the fmCYP2D6 at CYP2D6 [11] (setting [14]) is on record as 20.6%. Moreover, the “CLint CYP2D6” value at CYP2D6 [11] (retrograde calculations) is on record as 1.33 µL/min/pmol. This molecule gave a fmCYP3A4 at CYP3A4 of 61.1%. On CYP3A4 (microsomes), the “CLint CYP3A4” value is listed as 0.42 µL/min/pmol. The fmCYP1A2 in the series on CYP1A2 (setting [14]) came to 4.7%. In the series on CYP1A2 (setting [15]), the “CLint CYP1A2” value is given as 0.09 µL/min/pmol. The fmCYP2B6 in the series with CYP2B6 (fraction metabolised used in the PBPK model (artemether: without induction)) was determined as 7.7%. Besides, the “CLint CYP2B6” value in the series with CYP2B6 (setting [15]) is 0.47 µL/min/pmol.
